# Reference: PubChem BioAssay AID1996
# Details: buffer; pH 7.4; 200.0 µM
row,Structure (SMILES),solubility kinetic
1,COc1ccc(NC(=O)c2ccc3nc[nH]c3c2)cc1,> 40.1 µg/mL
2,CS(=O)(=O)N(CC(=O)Nc1cccc(Br)c1)Cc1ccccc1,51.3 µg/mL
3,O=C(CSc1ncn[nH]1)NCc1ccc2c(c1)OCO2,> 43.8 µg/mL
4,O=c1[nH]c2ccc(S(=O)(=O)Nc3ccc(Cl)cc3)cc2[nH]1,2.2 µg/mL
5,Cc1ccc(S(=O)(=O)CC(=O)Nc2ccccn2)cc1,42.3 µg/mL
6,COc1ccc(/C=C/C(=O)NC2CC3CCC2C3)cc1 (stereo not drawn),6.9 µg/mL
7,O=S(=O)(/C=C/c1cccc(Br)c1)N1CCOCC1,40 µg/mL
8,CN1CCN(c2nc3ccccn3c(=O)c2C=O)CC1.Cl,45 µg/mL
9,Cn1c2c(c(=O)c3ccccc31)CCCC2,> 32 µg/mL
10,Cc1cccc(NC(=O)C(C)Oc2ccc(C)nc2[N+](=O)[O-])c1 (stereo not drawn),> 47.3 µg/mL
11,COc1ccc2[nH]cc(CCNC(=O)c3ccc4ccccc4n3)c2c1,1.6 µg/mL
12,C#CC[N+](C)(C)CC#Cc1ccc(C)cc1.[Br-],> 43.8 µg/mL
13,COc1cccc(Oc2nc(N)ncc2[N+](=O)[O-])c1,32.3 µg/mL
14,O=C(NC1CCC(c2ccccc2)CC1)c1cccnc1 (stereo not drawn),4.3 µg/mL
15,Cc1cc2ncc(-c3cccs3)nc2cc1C,< 0.3 µg/mL
16,Cc1ccc(C(=O)C(C)Sc2nnc(N)s2)cc1 (stereo not drawn),> 41.9 µg/mL
17,NC(CSCc1cccc(Br)c1)C(=O)O (stereo not drawn),> 43.5 µg/mL
18,N#CC1(NC(=O)CN2C(=O)NC(Cc3c[nH]c4ccccc34)C2=O)CCCCC1 (stereo not drawn),> 59 µg/mL
19,COCCNc1nc(-c2cc(C)c(C)cc2C)cs1.Cl,35.4 µg/mL
20,CC(=O)NCCc1nc2ccccc2n1CCOc1ccc(C)cc1,> 50.6 µg/mL
21,NS(=O)(=O)c1ccc(CNS(=O)(=O)c2cccc3nonc23)cc1,54.4 µg/mL
22,CNCCc1ccc(OC)c(OC)c1,> 29.3 µg/mL
23,O=C(O)CCNC(=O)C12CC3CC(CC(C3)C1)C2,> 37.7 µg/mL
24,CC(=O)c1ccc(S(=O)(=O)N2CCCCC2C(=O)O)cc1 (stereo not drawn),45.9 µg/mL

row,Structure (SMILES),solubility kinetic
1,COc1cccc(C(=O)Nc2ccc3c(C)cc(=O)oc3c2)c1,< 0.7 µg/mL
2,NC(=S)C1COc2ccccc2O1 (stereo not drawn),> 29.3 µg/mL
3,COc1ccc(CCNC(=O)c2ccc(Cl)nc2)cc1,36.5 µg/mL
4,N/C(=N\O)c1ccc([N+](=O)[O-])s1,> 28.1 µg/mL
5,CCOc1ccc2[nH]c(SCC(=O)OC)c([N+](=O)[O-])c2c1,19.1 µg/mL
6,Cc1cccc(NC(=O)/C(C#N)=C/c2ccc[nH]2)c1C,2.1 µg/mL
7,CCC(C)CN1CCC(CO)(Cc2ccccc2Cl)CC1 (stereo not drawn),> 46.5 µg/mL
8,COc1ccccc1C(=O)NC(=O)COC(=O)CNC(=O)c1ccccc1F,> 58.3 µg/mL
9,Cc1cc(C)nc(N2CCN(c3ccc(F)cc3)CC2)n1,2.1 µg/mL
10,CCCCc1nc(C(N)=O)c2[nH]c(=O)n(-c3ccccc3F)c2n1,3.7 µg/mL
11,Cc1onc(-c2c(F)cccc2Cl)c1C(=O)OCC(=O)N1C(C)CCCC1C (stereo not drawn),41.7 µg/mL
12,COc1cc2c(cc1OC)C(C)N(S(=O)(=O)c1cccs1)CC2 (stereo not drawn),41.1 µg/mL
13,CCCCCC(=O)NC(=S)Nc1cccc(-c2nc3ncccc3o2)c1,< 0.2 µg/mL
14,CCN(CCO)C(=S)Nc1cc(S(=O)(=O)N(C)C)ccc1C,> 51.8 µg/mL
15,O=S(=O)(c1ccc(Cl)cc1)N1CCN2CCCC2C1 (stereo not drawn),> 45.1 µg/mL
16,O=C(CSc1nncs1)Nc1ccc2c(c1)OCO2,> 44.3 µg/mL
17,NC(CO)(CO)CO.O=C(c1ccccc1)c1ccc2n1CCC2C(=O)O (stereo not drawn),> 56.5 µg/mL
18,N#Cc1c(F)cccc1N1CCC(C#N)CC1,> 34.4 µg/mL
19,O=C(NCc1ccccc1)N1CCCC1,> 30.6 µg/mL
20,c1cncc(CNc2nc(-c3cccnc3)nc3ccccc23)c1,> 47 µg/mL
21,CC(=O)OCc1ccccc1Sc1ccccc1C(=O)NCc1ccccc1,21.1 µg/mL
22,CC(C)(C)OC(=O)N1CCN(CCNC(=O)c2ccccc2)CC1,> 50 µg/mL
23,CC1CCCC(NC(=O)COC(=O)c2ccc3c(c2)OCCO3)C1C (stereo not drawn),5.3 µg/mL
24,Cc1ccc(CNC(=O)CCCc2cn(C)c3ccccc23)cc1,0.4 µg/mL
